Experimental data: patent US5852210A, “Cinnamic acid derivatives” (G. D. Searle & Co., priority 1997, dated 1998)
Where a name gives a salt, the structure may show the parent alone.

Legend:
[1] = molecular target: T1, Human fibrinogen receptor (αIIb β3) (Homo sapiens, UniProt P05106+P08514); assay: Purified IIb/IIIa receptor assay (solid phase receptor assay); conditions: inhibition of binding of biotinylated human vitronectin (1 nM) to purified receptor; Table I
T1 construct: Human fibrinogen receptor (αIIb β3) was purified from outdated platelets; from tissue; host or cells: human outdated platelets
In short: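 Platelet-purified αIIbβ3 (100 ng/well) coated overnight at 4 °C, then competed 2 h at room temperature against 1 nM biotinylated human vitronectin in TBS with 1.0 mM Ca/Mg/Mn, pH 7.4, 1% BSA; top compound 1.0×10^-4 M. Bound ligand detected by HRP anti-biotin, A450, normalized to maximum binding, four-parameter fit.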

[2] = molecular target: T2, Human vitronectin receptor (αv β3) (Homo sapiens, UniProt P05106+P06756); assay: Vitronectin adhesion assay (solid phase receptor assay, αvβ3); format: binding; conditions: inhibition of binding of biotinylated human vitronectin (1 nM) to purified receptor; Table I; read-out: AvB3 IC50
T2 construct: Human vitronectin receptor (αv β3) was purified from human placenta; from tissue; host or cells: human placenta
In short: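 Placental αvβ3 (100 ng/well) coated in TBS with 1 mM Ca, Mg, Mn, pH 7.4, then compound competed with 1 nM biotinylated vitronectin for 2 h at room temperature (top compound concentration 1.0×10^-4 M). Bound ligand detected with HRP anti-biotin/OPD at 450 nm; values normalized to maximum binding, four-parameter curve fit.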

T2 sequence (P06756 31-889 limits assumed): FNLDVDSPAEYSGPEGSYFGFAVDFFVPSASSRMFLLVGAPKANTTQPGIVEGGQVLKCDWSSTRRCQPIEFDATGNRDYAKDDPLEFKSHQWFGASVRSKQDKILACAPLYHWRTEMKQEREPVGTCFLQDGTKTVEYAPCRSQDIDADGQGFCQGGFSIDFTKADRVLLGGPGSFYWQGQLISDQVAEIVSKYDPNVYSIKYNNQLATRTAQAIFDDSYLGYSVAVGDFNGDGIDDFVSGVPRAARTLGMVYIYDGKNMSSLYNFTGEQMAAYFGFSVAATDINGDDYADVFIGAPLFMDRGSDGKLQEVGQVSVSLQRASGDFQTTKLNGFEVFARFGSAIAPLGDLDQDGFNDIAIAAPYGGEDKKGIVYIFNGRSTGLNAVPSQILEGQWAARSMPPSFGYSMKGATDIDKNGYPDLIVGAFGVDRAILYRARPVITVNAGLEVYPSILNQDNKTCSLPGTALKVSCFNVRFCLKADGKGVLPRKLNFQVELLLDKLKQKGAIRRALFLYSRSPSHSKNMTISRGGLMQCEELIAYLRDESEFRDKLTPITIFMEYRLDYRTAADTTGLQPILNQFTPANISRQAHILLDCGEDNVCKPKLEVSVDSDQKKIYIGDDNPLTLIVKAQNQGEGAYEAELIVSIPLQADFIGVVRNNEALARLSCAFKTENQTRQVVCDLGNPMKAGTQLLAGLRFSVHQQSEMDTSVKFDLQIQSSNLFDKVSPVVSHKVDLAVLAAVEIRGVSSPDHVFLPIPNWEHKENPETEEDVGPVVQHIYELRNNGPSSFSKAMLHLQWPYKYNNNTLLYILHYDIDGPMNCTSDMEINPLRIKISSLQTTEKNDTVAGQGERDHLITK
T2 sequence (P06756 891-1048 limits assumed): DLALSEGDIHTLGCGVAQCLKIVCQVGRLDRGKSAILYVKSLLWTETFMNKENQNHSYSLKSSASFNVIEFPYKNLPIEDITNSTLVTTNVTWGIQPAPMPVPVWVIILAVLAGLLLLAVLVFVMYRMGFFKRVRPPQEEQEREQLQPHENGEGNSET
T2 sequence (P05106 27-788): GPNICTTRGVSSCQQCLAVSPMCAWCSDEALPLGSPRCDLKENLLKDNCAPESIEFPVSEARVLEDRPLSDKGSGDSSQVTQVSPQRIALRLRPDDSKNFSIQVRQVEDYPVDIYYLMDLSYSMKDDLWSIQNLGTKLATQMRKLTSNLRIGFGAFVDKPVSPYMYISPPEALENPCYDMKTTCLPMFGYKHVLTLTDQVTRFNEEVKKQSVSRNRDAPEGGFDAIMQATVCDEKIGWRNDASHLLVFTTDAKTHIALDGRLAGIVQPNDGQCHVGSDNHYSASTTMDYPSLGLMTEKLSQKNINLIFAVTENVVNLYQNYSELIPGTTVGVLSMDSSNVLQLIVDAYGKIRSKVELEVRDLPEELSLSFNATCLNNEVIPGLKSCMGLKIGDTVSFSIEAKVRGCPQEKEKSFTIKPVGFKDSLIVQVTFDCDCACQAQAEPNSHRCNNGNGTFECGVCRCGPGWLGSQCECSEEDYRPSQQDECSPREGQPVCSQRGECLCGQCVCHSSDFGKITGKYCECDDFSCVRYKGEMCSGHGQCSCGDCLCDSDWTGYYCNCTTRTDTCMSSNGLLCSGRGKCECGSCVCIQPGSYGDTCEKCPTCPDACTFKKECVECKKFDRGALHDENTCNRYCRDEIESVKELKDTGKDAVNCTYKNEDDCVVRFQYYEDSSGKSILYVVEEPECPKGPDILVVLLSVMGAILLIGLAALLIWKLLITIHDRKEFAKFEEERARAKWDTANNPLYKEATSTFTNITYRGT
T1 sequence (P08514 32-887 limits assumed): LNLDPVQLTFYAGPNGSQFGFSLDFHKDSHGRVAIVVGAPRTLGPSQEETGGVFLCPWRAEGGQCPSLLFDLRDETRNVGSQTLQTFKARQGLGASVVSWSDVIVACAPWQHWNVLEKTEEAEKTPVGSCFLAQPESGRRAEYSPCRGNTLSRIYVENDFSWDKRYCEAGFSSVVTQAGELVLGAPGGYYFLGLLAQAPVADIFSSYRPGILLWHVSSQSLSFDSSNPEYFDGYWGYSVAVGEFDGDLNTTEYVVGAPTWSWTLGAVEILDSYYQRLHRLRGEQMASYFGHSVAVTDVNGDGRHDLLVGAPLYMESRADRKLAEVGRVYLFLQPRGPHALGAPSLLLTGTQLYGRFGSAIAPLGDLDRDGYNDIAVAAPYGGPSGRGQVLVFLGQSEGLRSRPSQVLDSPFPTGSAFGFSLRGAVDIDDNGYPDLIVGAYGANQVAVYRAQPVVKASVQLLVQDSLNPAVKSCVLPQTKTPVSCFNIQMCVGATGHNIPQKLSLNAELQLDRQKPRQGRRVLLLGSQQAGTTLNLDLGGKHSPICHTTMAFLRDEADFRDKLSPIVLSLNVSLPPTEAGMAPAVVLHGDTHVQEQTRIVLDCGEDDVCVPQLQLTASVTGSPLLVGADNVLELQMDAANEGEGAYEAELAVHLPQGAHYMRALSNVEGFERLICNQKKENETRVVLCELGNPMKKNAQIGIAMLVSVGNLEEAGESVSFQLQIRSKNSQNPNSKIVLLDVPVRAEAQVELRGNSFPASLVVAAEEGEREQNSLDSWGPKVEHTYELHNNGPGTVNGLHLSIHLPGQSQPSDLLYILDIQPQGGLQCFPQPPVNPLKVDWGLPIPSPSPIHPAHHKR
T1 sequence (P08514 891-1039 limits assumed): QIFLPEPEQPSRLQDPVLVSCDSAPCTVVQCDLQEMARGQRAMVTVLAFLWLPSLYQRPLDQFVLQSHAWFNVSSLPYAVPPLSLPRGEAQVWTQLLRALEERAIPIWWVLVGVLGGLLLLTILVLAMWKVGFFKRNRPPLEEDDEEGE
T1 sequence (P05106 27-788): as the sequence (P05106 27-788) above

Structure (SMILES)	IC50 [1] [nM]	IC50 [2] [nM]
O=C(O)/C=C/c1cccc(/C=C/C(=O)c2cccc(NC3=NCCCN3)c2)c1 [Example 94, 3-[3-[3-oxo-3-[3-[(1,4,5,6-tetrahydropyrimidin-2-yl)amino]phenyl]-1-propenyl]phenyl]propenoic acid, trifluoroacetate salt]	2710	11.3
O=C(O)/C=C/c1cccc(CCC(=O)c2cccc(NC3=NCCCN3)c2)c1 [Example 95, 3-[3-[3-oxo-3-[3-[(1,4,5,6-tetrahydropyrimidin-2-yl)amino]phenyl]propyl]phenyl]propenoic acid, trifluoroacetate salt hydrate]	11800	58.5
O=C(O)/C=C/c1ccc(/C=C/c2cccc(NC3=NCCCN3)c2)cc1 [Example 98, 3-[4-[2-[3-[(1,4,5,6-tetrahydropyrimidin-2-yl)amino]phenyl]ethenyl]phenyl]propenoic acid, trifluoroacetate salt]	222	5.08
O=C(O)/C=C/c1ccc(/C=C/c2cccc(NC3=NCCCS3)c2)cc1 [Example 100, 3-[4-[2-[3-[(5,6-dihydro-4H-thiazin-2-yl)amino]phenyl]ethenyl]phenyl]propenoic acid, trifluoroacetate salt]	664	30.6
O=C(O)/C=C/c1ccc(OCc2cccc(NC3=NCCCN3)c2)cc1 [Example 101, 3-[4-[[3-[(1,4,5,6-tetrahydropyrimidin-2-yl)amino]phenyl]methoxy]phenyl]propenoic acid, trifluoroacetate salt]	118	42.6

Continued by falling IC50 [1], values first:

IC50 [1] [nM]	IC50 [2] [nM]	Structure (SMILES)
5990	6.1	O=C(O)/C=C/c1cccc(C(=O)CCc2cccc(NC3=NCCCN3)c2)c1 [Example 93, 3-[3-[1-oxo-3-[3-[(1,4,5,6-tetrahydropyrimidin-2-yl)amino]phenyl]propyl]phenyl]propenoic acid, trifluoroacetate salt]
4480	1940	N=C(N)Nc1cccc(-c2nc(-c3cccc(/C=C/C(=O)O)c3)co2)c1 [Example 102, 3-[3-[2-[3-[(aminoiminomethyl)amino]phenyl]oxazol-4-yl]phenyl]propenoic acid, trifluoroacetate salt]
722	26.5	O=C(O)/C=C/c1ccc(/C=C/c2cccc(NC3=NCCN3)c2)cc1 [Example 99, 3-[4-[2-[3-[(4,5-dihydro-1H-imidazol-2-yl)amino]phenyl]ethenyl]phenyl]propenoic acid, trifluoroacetate salt]
24.5	17300	N=C(N)Nc1cccc(-c2ncc(-c3ccc(/C=C/C(=O)O)cc3)[nH]2)c1 [Example 104, 3-[4-[2-[3-[(aminoiminomethyl)amino]phenyl]-1H-imidazol-5-yl]phenyl]propenoic acid, trifluoroacetate salt]
0.9	32100	N=C(N)Nc1cccc(-c2coc(-c3ccc(C=CC(=O)O)cc3)n2)c1 [Example 103, 3-[4-[4-[3-[(aminoiminomethyl)amino]phenyl]oxazol-2-yl]phenyl]propenoic acid]
